The values that follow come from publication PMC4861708 (Frontiers in Cell and Developmental Biology, 2016).

In brackets after ≈: the same amount, converted by molar mass. Where a SMILES comes first, the peptide text is derived from it. [ ]: non-standard residue; d: D form. The star is where a group is joined. Orn(α-tetramethylguanidino) = CN(C)C(=N[C@@H](CCCN)C(=O)*)N(C)C; Orn = NCCC[C@H](N)C(=O)O Where only a bound is given, the exact number is not on record here.

Data set [1] has as its system P. aeruginosa DSM 1117 (ATCC 27853). The arrangement: method as in Bluhm et al., 2015. Particulars: 50% MHB; ref Bluhm et al., 2015; cited from earlier work.
The subject of data set [2] is E. coli DSM 1103 (ATCC 25922). The class given is cell-based, Escherichia coli. To be noted: DSM 1103, 24 h. As for the experimental part: (§1) MICs of P. aeruginosa strains DSM 1117 (ATCC 27853), DSM 3227 (ATCC 19429), and DSM 9644 were determined in a microdilution broth assay using 50 or 100% MHB (11.5 and 23 g/L MHB, respectively) whereas MICs of E. coli DSM 1103 (ATCC 25922) and K. pneumoniae DSM 681 (ATCC 10031) were determined in TSB (30 g/L TSB). Peptides (1 g/L in water) were serially two-fold diluted in a 96-well microtiter plate (PS, sterile, flat bottom) in 50 μL of the corresponding medium to final concentrations of 512–4 μg/mL. Bacteria were grown in nutrient broth overnight and diluted to a cell concentration of 1.5 × 10^7 cells/mL in the corresponding medium. Cell densities were determined by using the McFarland standard as reference. An aliquot (50 μL) of the cell culture was added to each well and incubated (37°C, 24 h). The OD595 was determined in a SpectraMax 340PC (Molecular Devices, Sunnyvale, USA). Additionally, MIC values were also determined for high bacteria densities (5 × 10^8 cells/mL) corresponding to the conditions used for TEM, as described above.

For data set [3], the system named is K. pneumoniae DSM 681 (ATCC 10031). Format: cell-based, Klebsiella pneumoniae. Particulars: DSM 681, 24 h. As for the experimental part:
as §1

The test system of data set [4] is P. aeruginosa elastase. The data set is described as follows: P. aeruginosa elastase (0.012 U/μL) in Tris-HCl (5 mmol/L, pH 8.3). Particulars: 37°C, up to 6 h.
In data set [5] the target is T1, P. aeruginosa elastase (Pseudomonas aeruginosa, UniProt P14756).
T1 construct: purchased Merck (Darmstadt, Germany)
T1 sequence (P14756 198-498): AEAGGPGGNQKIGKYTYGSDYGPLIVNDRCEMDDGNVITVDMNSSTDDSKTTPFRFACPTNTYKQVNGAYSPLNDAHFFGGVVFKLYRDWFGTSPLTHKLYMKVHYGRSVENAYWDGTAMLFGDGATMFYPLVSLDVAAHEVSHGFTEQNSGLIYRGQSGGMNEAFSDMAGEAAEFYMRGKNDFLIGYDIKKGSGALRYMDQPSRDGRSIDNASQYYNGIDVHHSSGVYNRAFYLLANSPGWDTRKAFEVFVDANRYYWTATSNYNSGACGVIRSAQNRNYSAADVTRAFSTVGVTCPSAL
The data set is described as follows: Elastase assay (proteolytic stability). The class given is in vitro ADME. To be noted: Pseudomonas aeruginosa; 0.5 g/L peptide, elastase 12 units/mL, Tris-HCl pH 8.3, 37°C; read-out: Half-life time with Pseudomonas elastase. As for the experimental part: A stock solution of P. aeruginosa elastase (0.26 U/μL) was prepared in Tris-HCl (5 mmol/L, pH 8.3) and stored at −80°C. Peptides (0.5 g/L in 5 mmol/L Tris-HCl, pH 8.3) were incubated with elastase (0.012 U/μL) at 37°C under constant shaking (450 rpm) for 0, 0.5, 2, 4, and 6 h. Aliquots (10.5 μL) were precipitated with a mixture of acetonitrile and ethanol (1:1 v/v) containing 0.1% TFA (21 μL), centrifuged, the supernatant transferred into a new tube, and dried in vacuum. Samples were dissolved in aqueous acetonitrile (3% v/v) containing TFA (0.1% v/v) and analyzed by RP-HPLC using the conditions described above.

Data set [6] in a line: in vitro. To be noted: mouse, mouse serum, Half-life time mouse serum, 37°C. As for the experimental part: Peptide solutions (1 g/L) were added to mouse serum to obtain final concentrations of 70 mg/L peptide and incubated under constant shaking at 37°C. After 0, 1, 2, 3, and 6 h aliquots (95 μL) were precipitated with aqueous TCA (25 μL, 15% w/v), incubated for 10 min on ice, and centrifuged (5 min, 12,000 × g, Eppendorf mini spin centrifuge). An aliquot of the supernatant (95 μL) was neutralized with sodium hydroxide (8 μL, 1 mol/L) and diluted with aqueous acetonitrile solution (3% acetonitrile, 0.1% TFA; 200 μL). Peptides were quantified by the peak areas obtained by analytical RP-HPLC on a Jupiter C18-column (ID: 2 mm) using a linear aqueous acetonitrile gradient with 0.1% (v/v) TFA (absorbance recorded at 214 nm). Peak areas of all time points were normalized to the initial peak area obtained after “0 min incubation” (= 100%). Experiments were carried out as triplicates in parallel and half-life times were calculated using GraphPad Prism 5.0.

Data set [7] relates to HeLa cells. The experiment in a line: in vitro. Format: cell-based. Particulars: 24 h. As for the experimental part:
(§2) Human embryonic kidney (HEK293) and HeLa cells were cultured in Dulbecco's modified Eagle's/Ham's F-12 medium [DMEM/F-12 (1:1)] supplemented with FBS (10% v/v), penicillin, and streptomycin (1000 units each). Primary rat cardiomyocytes (Innoprot, Elexalde Derio, Spain) were grown in medium supplemented with FBS (20% v/v), horse serum (5% v/v), L-glutamine (2 mmol/L), sodium pyruvate (2 mmol/L), MEM non-essential amino acids (Gibco, 0.1 mmol/L), penicillin, and streptomycin (1000 units each). Surfaces for cardiomyocyte growth were coated with attachment factor first. Cells (20,000/well) were seeded into a 96-well plate (PS, sterile, flat bottom), incubated for 24 h (37°C, 5% CO2), and washed twice with PBS (100 μl/well) prior to adding colorless medium (88 μL) and peptide solution (12 μL; 5, 2.5, 1.25, […], and 0.625 g/L in PBS). Positive controls were triton X-100 (1%, v/v) and melittin (60 mg/L) as lytic peptide, whereas PBS (12%, v/v) served as negative control. After an incubation period of 24 h, supernatant (25 μL) was mixed with lactate dehydrogenase (LDH) substrate (175 μL; 0.57 mmol/L sodium pyruvate, 0.24 mmol/L NADH disodium salt, 32 mmol/L potassium dihydrogen phosphate, 66 mmol/L dipotassium phosphate) in 96-well plates (PS, sterile, flat bottom). Absorbance was recorded at 340 nm every 3 min for 30 min on the Paradigm microplate reader. Due to the total release of LDH upon triton X-100 treatment, the control contained high LDH concentrations resulting in a fast substrate turnover that was only linear for the first 6 min.
(§3) The MTT cell viability assay relied on the same cell culture. Remaining medium was replaced by a mixture of fresh colorless medium (100 μL) and MTT (10 μL; 5 g/L in PBS) and incubated for 4 h (37°C, 5% CO2). A solution of sodium dodecyl sulfate (100 μL; 10%, w/v) dissolved in hydrochloric acid (10 mmol/L) was added, incubated (16 h), and the absorbance recorded at 590 nm relative to the reference at 650 nm (Paradigm microplate reader). The relative cell viability was calculated by [(ODPeptide − ODTriton)/(ODPBS − ODTriton)] × 100% and half-maximal inhibitory concentrations (IC50) with an Excel-template from cell biology protocols (www.sciencegateway.org/ protocols/cellbio/drug/hcic50.htm). For statistical analysis an unpaired t-test was applied using GraphPad Prism 5.0.

Data set [8] has as its system Primary rat cardiomyocytes. The data set is described as follows: in vitro. The class given is cell-based. Particulars: 24 h. As for the experimental part:
as §2, §3

In data set [9] the test system is HEK293 cells. The experiment in a line: in vitro. Particulars: 24 h. Format: cell-based, human. As for the experimental part:
as §2, §3

Consider `CC[C@H](C)[C@H](NC(=O)[C@H](CCCN)N=C(N(C)C)N(C)C)C(=O)N[C@@H](CCCN)C(=O)N[C@@H](CCCNC(=N)N)C(=O)N1CCC[C@H]1C(=O)N[C@H](C(=O)N[C@@H](Cc1ccc(O)cc1)C(=O)N[C@@H](CCCN)C(=O)N1CCC[C@H]1C(=O)N[C@@H](CCCNC(=N)N)C(=O)N1CCC[C@H]1C(=O)N[C@@H](CCCNC(=N)N)C(=O)N1CCC[C@H]1C(=O)N1CCC[C@H]1C(=O)N[C@@H](Cc1c[nH]cn1)C(=O)N1CCC[C@H]1C(=O)N[C@@H](CCCNC(=N)N)C(=O)N[C@@H](CC(C)C)C(=O)O)C(C)C` [Api755, gu-OIORPVYOPRPRPPHPRL-OH, reference compound] ({Orn(α-tetramethylguanidino)}-I[Orn]RPVY[Orn]PRPRPPHPRL-OH), for which, in data set [1], the “times more active than Api137 against P. aeruginosa” value was 16. Also, the “MIC E. coli ATCC 25922” value in data set [2] was 8 µg/mL (≈ 3.49 µM). The “MIC K. pneumoniae DSM 681” value in data set [3] was 8 µg/mL (≈ 3.49 µM).
In the case of gu-ONNRPVYIPRPRPPHPRL-OH, the not cleaved result in data set [4] is recorded as “fully recovered after an incubation period of 6 h”.
With `CC[C@H](C)[C@H](NC(=O)[C@H](CCCCN)NC(=O)[C@H](CCC(=O)O)NC(=O)[C@H](CCCCN)NC(=O)[C@H](CO)NC(=O)[C@H](CCCCN)NC(=O)[C@H](CCCNC(=N)N)NC(=O)[C@H](Cc1ccccc1)NC(=O)[C@H](Cc1ccccc1)NC(=O)[C@H](CC(=O)O)NC(=O)CNC(=O)[C@H](CC(C)C)NC(=O)[C@@H](N)CC(C)C)C(=O)NCC(=O)N[C@@H](CCCCN)C(=O)N[C@@H](CCC(=O)O)C(=O)N[C@@H](Cc1ccccc1)C(=O)N[C@@H](CCCCN)C(=O)N[C@@H](CCCNC(=N)N)C(=O)N[C@H](C(=O)N[C@H](C(=O)N[C@@H](CCC(N)=O)C(=O)N[C@@H](CCCNC(=N)N)C(=O)N[C@H](C(=O)N[C@@H](CCCCN)C(=O)N[C@@H](CC(=O)O)C(=O)N[C@@H](Cc1ccccc1)C(=O)N[C@@H](CC(C)C)C(=O)N[C@@H](CCCNC(=N)N)C(=O)N[C@@H](CC(N)=O)C(=O)N[C@@H](CC(C)C)C(=O)N[C@H](C(=O)N1CCC[C@H]1C(=O)N[C@@H](CCCNC(=N)N)C(=O)N[C@H](C(=O)N[C@@H](CCC(=O)O)C(=O)N[C@@H](CO)C(=O)O)[C@@H](C)O)C(C)C)[C@@H](C)CC)C(C)C)[C@@H](C)CC` [LL-37, reference compound], the half-life (usually the time in which the quantity being followed falls by half) at 0.5 g/L in data set [5] turned out to be 3 min.
For the molecule gu-O(IO)2RPVYOPRPRPPHPRL-OH, the not cleaved in data set [4] is 92 ± 4% detected after 30 min and for all later time points (6 h).
`CC(C)C[C@H](NC(=O)[C@H](CCCNC(=N)N)NC(=O)[C@@H]1CCCN1C(=O)[C@H](Cc1c[nH]cn1)NC(=O)[C@@H]1CCCN1C(=O)[C@@H]1CCCN1C(=O)[C@H](CCCNC(=N)N)NC(=O)[C@@H]1CCCN1C(=O)[C@H](CCCNC(=N)N)NC(=O)[C@@H]1CCCN1C(=O)[C@H](CCCN)NC(=O)[C@H](Cc1ccc(O)cc1)NC(=O)[C@@H](NC(=O)[C@@H]1CCCN1C(=O)[C@H](CCCNC(=N)N)NC(=O)[C@H](CCCN)NC(=O)[C@H](Cc1c[nH]c2ccccc12)NC(=O)[C@H](CCCN)N=C(N(C)C)N(C)C)C(C)C)C(=O)O` [Api760, gu-OWORPVYOPRPRPPHPRL-OH, reference compound] ({Orn(α-tetramethylguanidino)}-W[Orn]RPVY[Orn]PRPRPPHPRL-OH): the “times more active than Api137 against P. aeruginosa” value in [1] is on record as 16. Moreover, the “MIC E. coli ATCC 25922” value in data set [2] came out at 8 µg/mL (≈ 3.38 µM). The “MIC K. pneumoniae DSM 681” value in data set [3] is 8 µg/mL (≈ 3.38 µM).
For the molecule `CC(C)C[C@H](NC(=O)[C@H](CCCNC(=N)N)NC(=O)[C@@H]1CCCN1C(=O)[C@H](Cc1c[nH]cn1)NC(=O)[C@@H]1CCCN1C(=O)[C@@H]1CCCN1C(=O)[C@H](CCCNC(=N)N)NC(=O)[C@@H]1CCCN1C(=O)[C@H](CCCNC(=N)N)NC(=O)[C@@H]1CCCN1C(=O)[C@H](CCCN)NC(=O)[C@H](Cc1ccc(O)cc1)NC(=O)[C@@H](NC(=O)[C@@H]1CCCN1C(=O)[C@H](CCCNC(=N)N)NC(=O)[C@H](CCCN)NC(=O)[C@H](Cc1c[nH]c2ccccc12)NC(=O)[C@H](CCCN)NC(=O)[C@H](Cc1c[nH]c2ccccc12)NC(=O)[C@H](CCCN)N=C(N(C)C)N(C)C)C(C)C)C(=O)O` [Api793, guO(WO)2RPVYOPRPRPPHPRL] ({Orn(α-tetramethylguanidino)}-W[Orn]W[Orn]RPVY[Orn]PRPRPPHPRL-OH), the half-life at 70 mg/L in [6] turned out to be 4.1 h. Also, the “MIC E. coli ATCC 25922” value in [2] amounted to 8 µg/mL (≈ 3 µM). Also, the “MIC K. pneumoniae DSM 681” value in data set [3] was determined as 16 µg/mL (≈ 6 µM). For the same molecule, the results for the “IC50 on cell viability” value in data set [7], in [8] and in data set [9] were 640 ± 150 µg/mL (≈ 240 µM), over 600 µg/mL and 640 ± 50 µg/mL (≈ 240 µM), respectively.
